Experimental data: patent US10077261B2, “Imidazolin-5-one derivative useful as FASN inhibitors for the treatment of cancer” (Janssen Pharmaceutica NV, priority 2012, dated 2018)

Assays:
[1] = target: T1, hFASN enzyme (full length) (Homo sapiens, UniProt P49327); assay: Fatty Acid Synthase (FASN) inhibition scintillation proximity assay; assay type: biochemical; details: for inhibition at 10 µM: read-out: Human FASN % inhibition @ 10 μM, 10 μM test compound; for IC50: read-out: Human FASN pIC50 (converted)
T1 construct: 10 μL hFASN enzyme (full length, 300 ng, purified in house); made in house
T1 sequence (P49327 whole entry): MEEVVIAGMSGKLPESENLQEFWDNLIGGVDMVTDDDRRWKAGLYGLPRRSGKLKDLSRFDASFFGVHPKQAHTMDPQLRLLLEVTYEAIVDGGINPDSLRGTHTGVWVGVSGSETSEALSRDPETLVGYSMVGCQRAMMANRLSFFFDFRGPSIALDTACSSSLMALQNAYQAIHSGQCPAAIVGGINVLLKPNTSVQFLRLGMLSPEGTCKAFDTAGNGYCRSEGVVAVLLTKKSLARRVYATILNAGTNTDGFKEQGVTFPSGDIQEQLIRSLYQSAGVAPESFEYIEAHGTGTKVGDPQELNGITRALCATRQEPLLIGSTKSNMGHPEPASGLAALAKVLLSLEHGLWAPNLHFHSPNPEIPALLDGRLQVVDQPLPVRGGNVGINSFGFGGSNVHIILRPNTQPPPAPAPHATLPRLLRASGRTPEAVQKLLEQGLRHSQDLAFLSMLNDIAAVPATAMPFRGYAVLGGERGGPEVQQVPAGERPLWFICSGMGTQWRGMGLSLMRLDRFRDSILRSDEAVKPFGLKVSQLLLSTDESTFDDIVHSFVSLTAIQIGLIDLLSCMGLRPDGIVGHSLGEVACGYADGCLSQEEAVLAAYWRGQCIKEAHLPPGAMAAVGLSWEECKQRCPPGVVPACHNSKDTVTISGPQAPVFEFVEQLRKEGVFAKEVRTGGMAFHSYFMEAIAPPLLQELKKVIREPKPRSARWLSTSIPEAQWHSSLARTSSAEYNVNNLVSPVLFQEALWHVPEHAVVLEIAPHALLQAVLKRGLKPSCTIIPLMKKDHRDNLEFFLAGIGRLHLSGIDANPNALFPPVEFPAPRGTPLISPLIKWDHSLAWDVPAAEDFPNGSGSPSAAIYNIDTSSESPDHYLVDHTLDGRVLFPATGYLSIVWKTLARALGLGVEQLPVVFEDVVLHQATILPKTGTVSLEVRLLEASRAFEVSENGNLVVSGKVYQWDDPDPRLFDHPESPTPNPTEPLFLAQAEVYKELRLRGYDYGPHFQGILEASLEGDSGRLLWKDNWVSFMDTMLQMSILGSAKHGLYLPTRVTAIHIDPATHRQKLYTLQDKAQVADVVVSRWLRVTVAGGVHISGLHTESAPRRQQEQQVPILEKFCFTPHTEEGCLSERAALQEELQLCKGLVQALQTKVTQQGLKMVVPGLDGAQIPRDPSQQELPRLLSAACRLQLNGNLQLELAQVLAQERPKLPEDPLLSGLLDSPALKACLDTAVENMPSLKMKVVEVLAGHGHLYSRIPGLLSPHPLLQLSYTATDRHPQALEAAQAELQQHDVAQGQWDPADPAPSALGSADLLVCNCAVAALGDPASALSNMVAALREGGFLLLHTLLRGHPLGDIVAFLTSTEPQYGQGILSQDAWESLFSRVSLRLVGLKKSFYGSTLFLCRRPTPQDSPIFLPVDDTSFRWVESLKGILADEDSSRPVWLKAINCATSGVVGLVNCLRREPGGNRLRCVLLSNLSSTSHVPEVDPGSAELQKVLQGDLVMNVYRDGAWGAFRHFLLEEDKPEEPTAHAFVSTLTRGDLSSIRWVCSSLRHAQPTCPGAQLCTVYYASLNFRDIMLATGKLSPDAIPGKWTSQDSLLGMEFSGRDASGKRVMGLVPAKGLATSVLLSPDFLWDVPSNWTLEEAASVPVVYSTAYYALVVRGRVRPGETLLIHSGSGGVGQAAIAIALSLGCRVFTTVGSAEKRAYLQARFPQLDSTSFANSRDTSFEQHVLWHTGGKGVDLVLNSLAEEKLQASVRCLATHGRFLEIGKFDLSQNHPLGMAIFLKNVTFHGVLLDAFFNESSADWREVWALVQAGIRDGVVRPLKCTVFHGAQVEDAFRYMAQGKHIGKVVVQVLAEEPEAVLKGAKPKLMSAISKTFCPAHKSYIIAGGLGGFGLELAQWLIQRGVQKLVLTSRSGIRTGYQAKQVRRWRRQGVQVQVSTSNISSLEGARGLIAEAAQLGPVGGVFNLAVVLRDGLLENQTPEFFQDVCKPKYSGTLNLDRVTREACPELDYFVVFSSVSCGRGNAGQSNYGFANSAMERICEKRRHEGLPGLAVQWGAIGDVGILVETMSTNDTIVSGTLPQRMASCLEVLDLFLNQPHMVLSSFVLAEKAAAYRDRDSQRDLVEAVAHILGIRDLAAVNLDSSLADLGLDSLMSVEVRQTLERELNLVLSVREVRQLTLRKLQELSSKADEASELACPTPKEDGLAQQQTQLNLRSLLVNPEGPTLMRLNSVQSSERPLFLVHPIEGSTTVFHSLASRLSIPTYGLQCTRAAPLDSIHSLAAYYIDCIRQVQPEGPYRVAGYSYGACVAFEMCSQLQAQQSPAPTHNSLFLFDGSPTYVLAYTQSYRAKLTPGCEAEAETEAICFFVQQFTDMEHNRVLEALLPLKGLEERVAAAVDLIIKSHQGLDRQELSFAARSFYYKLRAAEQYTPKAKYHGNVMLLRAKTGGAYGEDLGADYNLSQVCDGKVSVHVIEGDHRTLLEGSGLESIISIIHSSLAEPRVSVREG
Procedure, shortened: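 Proximity read-out: hydrophobic ^3H-palmitate formed from ^3H-acetyl-CoA and malonyl-CoA binds streptavidin imaging beads, imaged at 610±20 nm at least 24 h after stopping. Enzyme was in-house purified full-length hFASN, 300 ng, in pH 7.5 phosphate/DTT buffer; compound series 30 μM down to 0.01 μM, normalized to controls, 4-parameter fit.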

A2780 ovarian cells [2] = assay: A2780 ovarian cell proliferation assay in lipid reduced medium, with palmitate (MTT); assay type: cell-based; details: Homo sapiens, A2780, 96 h; read-out: pIC50 A2780 Ovarian Cell, With Palmitate (converted)
Procedure, shortened: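 In this palmitate-supplemented format, compound dilutions (30 μM down to 0.01 μM) are added to cells in lipid-reduced serum with 25 μM palmitate, 0.2% fatty-acid-free BSA and 0.25% ethanol. After four days (96 h) MTT absorbance at 544 nm is recorded and fitted by minimum sum of squares.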

A2780 ovarian cells [3] = assay: A2780 ovarian cell proliferation assay in lipid reduced medium, without palmitate (MTT); assay type: cell-based; details: Homo sapiens, A2780, 96 h; read-out: pIC50 A2780 Ovarian Cell, Without Palmitate (converted)
[4] = target: Fatty Acid Synthase Keto-reductase Domain (FASN KR) (Homo sapiens, UniProt P49327); assay: Fatty Acid Synthase keto-reductase domain (FASN KR) inhibition, NADPH oxidation at 340 nm
Fatty Acid Synthase Keto-reductase Domain (FASN KR), sequence (P49327 whole entry, the tested form may be a part): as the sequence (P49327 whole entry) above
Protocol: After 20 minutes incubation at room temperature the plate was measured again (T2).
The decrease in absorbance was calculated as (Absorbance before incubation T1)−(Absorbance following incubation T2).
A plot of Controlmin versus test compound concentration was fitted to a 4-parameter logistic curve using a non-linear least squares regression method.

| Structure (SMILES) | inhibition at 10 µM [1] [%] | IC50 [1] [nM] | IC50 (A2780 ovarian cells [2]) [nM] | IC50 (A2780 ovarian cells [3]) [nM] | IC50 [4] [nM] |
| --- | --- | --- | --- | --- | --- |
| COC(=O)N1CCC2(CC1)N=C(c1ccc(-c3ccc4occc4c3)cc1)N(C[C@@H]1CCN(C(=O)C3CC3)C1)C2=O [compound 14, (R)-Methyl 2-(4-(benzofuran-5-yl)phenyl)-3-((1-(cyclopropanecarbonyl)pyrrolidin-3-yl)methyl)-4-oxo-1,3,8-triazaspiro[4.5]dec-1-ene-8-carboxylate] | 98.2 | 148 | > 10000 | 1230 | 302 |
| COc1cccc(-c2ccc(C3=NC4(CC4)C(=O)N3C[C@@H]3CCN(C(=O)C4CC4)C3)cc2)c1 [compound 113, 6-{[(3R)-1-(Cyclopropylcarbonyl)pyrrolidin-3-yl]methyl}-5-(3′-methoxybiphenyl-4-yl)-4,6-diazaspiro[2.4]hept-4-en-7-one] | 109 | 117 | > 10000 | ~1780 | 1070 |
| O=C(C1CC1)N1CC[C@@H](CN2C(=O)C3(CC3)N=C2c2ccc(-c3nc4ccccc4[nH]3)cc2F)C1 [compound 538, 5-[4-(1H-Benzimidazol-2-yl)-2-fluorophenyl]-6-{[(3R)-1-(cyclopropylcarbonyl)pyrrolidin-3-yl]methyl}-4,6-diazaspiro[2.4]hept-4-en-7-one] | 99 | 170 | ~10000 | 132 | 331 |
| O=C(C1CC1)N1CC[C@@H](CN2C(=O)C3(CC3)N=C2c2ccc(-c3ccc4[nH]ccc4c3)cc2)C1 [compound 31, 6-{[(3R)-1-(Cyclopropylcarbonyl)pyrrolidin-3-yl]methyl}-5-[4-(1H-indol-5-yl)phenyl]-4,6-diazaspiro[2.4]hept-4-en-7-one] | 107 | 21.9 | > 10000 | 28.8 | 35.5 |
| Cn1ncc2ccc(-c3ccc(C4=NC5(CC5)C(=O)N4C[C@@H]4CCN(C(=O)C5CC5)C4)cc3)cc21 [compound 27, 6-{[(3R)-1-(Cyclopropylcarbonyl)pyrrolidin-3-yl]methyl}-5-[4-(1-methyl-1H-indazol-6-yl)phenyl]-4,6-diazaspiro[2.4]hept-4-en-7-one] | 100 | 70.8 | > 10000 | 251 | 120 |
| O=C(C1CC1)N1CCC(CN2C(=O)C3(CC3)N=C2c2ccc(-c3ccc4cnccc4c3)cc2)CC1 [compound 20, 6-{[1-(Cyclopropylcarbonyl)piperidin-4-yl]methyl}-5-(4-isoquinolin-6-ylphenyl)-4,6-diazaspiro[2.4]hept-4-en-7-one] | 101 | 158 | 8130 | 646 | 676 |
| COCCN1CCC2(CC1)N=C(c1ccc(-c3ccc4[nH]ccc4c3)cc1)N(CC1CN(C(=O)C3CC3)C1)C2=O [compound 755, 3-{[1-(Cyclopropylcarbonyl)azetidin-3-yl]methyl}-2-[4-(1H-indol-5-yl)phenyl]-8-triazaspiro[4.5]dec-1-en-4-one] | 107 | 229 | > 6170 | ~316 | 631 |
| COCc1nn(C)c2ccc(-c3ccc(C4=NC5(CC5)C(=O)N4CC4CN(C(=O)C5CC5)C4)c(C)c3)cc12 [compound 588, 6-{[1-(Cyclopropylcarbonyl)azetidin-3-yl]methyl}-5-{4-[3-(methoxymethyl)-1-methyl-1H-indazol-5-yl]-2-methylphenyl}-4,6-diazaspiro[2.4]hept-4-en-7-one] | 93 | 603 | > 10000 | ~676 | 1170 |
| O=C(C1CC1)N1CC(CN2C(=O)C3(CCN(CCO)CC3)N=C2c2ccc(-c3ccc4[nH]ccc4c3)cc2)C1 [compound 757, 3-{[1-(Cyclopropylcarbonyl)azetidin-3-yl]methyl}-8-(2-hydroxyethyl)-2-[4-(1H-indol-5-yl)phenyl]-1,3,8-triazaspiro[4.5]dec-1-en-4-one] | 104 | 158 | > 10000 | 708 | 1000 |
| O=C(C1CC1)N1CC[C@@H](CN2C(=O)C3(CCCC3)N=C2c2ccc(-c3cccc4[nH]ncc34)cc2)C1 [compound 92, 3-{[(3R)-1-(Cyclopropylcarbonyl)pyrrolidin-3-yl]methyl}-2-[4-(1H-indazol-4-yl)phenyl]-1,3-diazaspiro[4.4]non-1-en-4-one] | 111 | 51.3 | > 10000 | 45.7 | 77.6 |
| Cc1cccc(-c2ccc(C3=NC4(CC4)C(=O)N3C[C@@H]3CCN(C(=O)C4CC4)C3)cc2)c1 [compound 101, 6-{[(3R)-1-(Cyclopropylcarbonyl)pyrrolidin-3-yl]methyl}-5-(3′-methylbiphenyl-4-yl)-4,6-diazaspiro[2.4]hept-4-en-7-one] | 112 | 81.3 | > 10000 | 1700 | 380 |
| CC(C)N1CCC2(CC1)N=C(c1ccc(-c3ccc4[nH]ncc4c3)cc1)N(C[C@@H]1CCN(C(=O)C3CC3)C1)C2=O [compound 743, 3-{[(3R)-1-(Cyclopropylcarbonyl)pyrrolidin-3-yl]methyl}-2-[4-(1H-indazol-5-yl)phenyl]-8-(1-methylethyl)-1,3,8-triazaspiro[4.5]dec-1-en-4-one] | 90 | 708 | > 10000 | 2090 | 1580 |
| O=C(C1CC1)N1CCC(CN2C(=O)C3(CC3)N=C2c2ccc(-c3ccc4[nH]ncc4c3)cc2)CC1 [compound 29, 6-{[1-(Cyclopropylcarbonyl)piperidin-4-yl]methyl}-5-[4-(1H-indazol-5-yl)phenyl]-4,6-diazaspiro[2.4]hept-4-en-7-one] | 81.7 | 933 | > 10000 | 3390 | 2340 |
| O=C(C1CC1)N1CC[C@@H](CN2C(=O)C3(CCCC3)N=C2c2ccc(-c3ccc4ccncc4c3)cc2)C1 [compound 69, 3-{[(3R)-1-(Cyclopropylcarbonyl)pyrrolidin-3-yl]methyl}-2-(4-isoquinolin-7-ylphenyl)-1,3-diazaspiro[4.4]non-1-en-4-one] | 100 | 224 | > 10000 | 1150 | 851 |
| COC(=O)N1CCC2(CC1)N=C(c1ccc(-c3ccc4[nH]ccc4c3)cc1)N(C[C@@H]1CCN(C(=O)C3CC3)C1)C2=O [compound 15, Methyl 3-{[(3R)-1-(cyclopropylcarbonyl)pyrrolidin-3-yl]methyl}-2-[4-(1H-indol-5-yl)phenyl]-4-oxo-1,3,8-triazaspiro[4.5]dec-1-ene-8-carboxylate] | 113 | 43.7 | > 10000 | ~63.1 | 70.8 |
| CN1CCC2(CC1)N=C(c1ccc(-c3ccc4[nH]ccc4c3)cc1)N(C[C@@H]1CCN(C(=O)C3CC3)C1)C2=O [compound 81, (R)-2-(4-(1H-Indol-5-yl)phenyl)-3-((1-(cyclopropanecarbonyl)pyrrolidin-3-yl)methyl)-8-methy-1,3,8-triazaspiro[4.5]dec-1-en-4-one] | 109 | 91.2 | > 6170 | 102 | 186 |
| O=C(N1CC[C@@H](CN2C(=O)C3(CCCC3)N=C2c2ccc(-c3ccc4occc4c3)cc2)C1)C1(O)CC1 [compound 878, (R)-2-(4-(benzofuran-5-yl)phenyl)-3-((1-(1-hydroxycyclopropanecarbonyl)pyrrolidin-3-yl)methyl)-1,3-diazaspiro[4.4]non-1-en-4-one] | 113 | 36.3 | > 10000 | ~93.3 | 60.3 |
| Cc1cc2cc(-c3ccc(C4=NC5(CC5)C(=O)N4C[C@@H]4CCN(C(=O)C5CC5)C4)cc3F)ccc2o1 [compound 387, 6-{[(3R)-1-(Cyclopropylcarbonyl)pyrrolidin-3-yl]methyl}-5-[3-fluoro-4-(2-methyl-1-benzofuran-5-yl)phenyl]-4,6-diazaspiro[2.4]hept-4-en-7-one] | 103 | 219 | > 10000 | ~3240 | 759 |
| O=C(C1CC1)N1CC[C@H](CN2C(=O)C3(CC3)N=C2c2ccc(-c3ccc4sccc4c3)cc2)C1 [compound 211, (S)-5-(4-(benzo[b]thiophen-5-yl)phenyl)-6-((1-(cyclopropanecarbonyl)pyrrolidin-3-yl)methyl)-4,6-diazaspiro[2.4]hept-4-en-7-one] | 107 | 85.1 | > 10000 | ~708 | 200 |
| CC(C)C(=O)N1CCC2(CC1)N=C(c1ccc(-c3ccc4[nH]ccc4c3)cc1)N(CC1CN(C(=O)C3CC3)C1)C2=O [compound 753, 3-{[1-(Cyclopropylcarbonyl)azetidin-3-yl]methyl}-2-[4-(1H-indol-5-yl)phenyl]-8-(2-methylpropanoyl)-1,3,8-triazaspiro[4.5]dec-1-en-4-one] | 107 | 135 | > 10000 | ~245 | 646 |
